Consider 13 compounds from patent publication US9586986B2, “Substituted 7-deazapurine ribonucleosides for therapeutic uses” (Institute of Organic Chemistry and Biochemistry ASCR, v.v.i., priority 2014, dated 2017).

Where only a bound is given, the exact number is not on record here.

Data set [1] deals with HCV subtype 1B replicon in Huh-7 cells. Nature of the data set: HCV sub-genomic reporter replicon assay, subtype 1B. Type of data set: cell-based. To be noted: Hepatitis C virus; Huh-7 cells, HCV subtype 1B replicon; read-out: Replicon 1B EC50. The method, then: (§1) Compounds were also tested in Huh-7 cells harboring sub-genomic reporter replicons derived from HCV subtypes 1B and 2A (ref.: Stuyver, L. J.; Whitaker, T.; McBrayer, T. R.; Hernandez-Santiago, B. I.; Lostia, S.; Tharnish, P. M.; Ramesh, M.; Chu, C. K.; Jordan, R.; Shi, J. X.; Rachakonda, S.; Watanabe, K. A.; Otto, M. J.; Schinazi, R. F. Antimicrob. Agents Chemother. 2003, 47, 244-254).

Data set [2] deals with CCRF-CEM cells. Description: BrU incorporation analysis (RNA synthesis). Type of data set: cell-based, human. To be noted: CCRF-CEM cells treated at IC50 for 24 hrs. The procedure:
Cells were cultured and treated as for cell cycle analysis. Before harvesting, they were pulse-labelled with 1 mM 5-bromouridine (BrU) for 30 min. The cells were fixed in 1% buffered paraformaldehyde with 0.05% of NP-40, incubated in room temperature for 15 min and than in the fridge overnight. They were then washed in 1% glycin in PBS, washed in PBS and stained with primary anti-BrdU antibody crossreacting to BrU (Exbio) for 30 min at room temperature in the dark. Cells were than washed with PBS and stained with secondary anti-mouse-FITC antibody (Sigma). Following the staining the cells are washed with PBS and fixed with 1% PBS buffered paraformaldehyde with 0.05% of NP-40. The cells were then washed with PBS, incubated with propidium iodide (0.1 mg/mL) and RNAse A (0.5 mg/mL) for 1 h at room temperature in the dark, and finally analyzed by flow cytometry using a 488 nm single-beam laser (FACSCalibur, Becton Dickinson).
(§2) However, the major mechanism of action was inhibition of RNA synthesis (BrU incorporation). […] Cell cycle alterations (G1, S, G2/M) were not observed in treated cells under specified experimental conditions.

Data set [3] relates to CCRF-CEM cells. Description: Cell cycle and apoptosis analysis (flow cytometry, propidium iodide). Format: cell-based, human. Conditions: CCRF-CEM cells treated at IC50 for 24 hrs. The procedure: (§3) After the incubation period, cells were then washed with cold 1×PBS and fixed in 70% ethanol added dropwise and stored overnight at −20° C. Afterwards, cells were washed in hypotonic citrate buffer, treated with RNase (50 μg/mL) and stained with propidium iodide. Flow cytometry using a 488 nm single-beam laser (Becton Dickinson) was used for measurement. The data were analyzed according to the program ModFitLT (Verity), and apoptosis was expressed as the percentage of cells with a propidium content lower than that in the G0/G1 population. Half of the sample was used for pH3^ser10 antibody (Sigma) labeling and subsequent flow cytometry analysis of mitotic cells.
as §2

Another data set concerns HepG2. Description: XTT cytotoxicity assay, HepG2. Format: cell-based. To be noted: Homo sapiens, HepG2; 72 h incubation; read-out: XTT, IC50 HepG2. The method, then: HL-60, Hela S3 and HepG2 cell lines (ATCC) were grown in RPMI-1640 or DMEM medium supplemented with 10% fetal calf serum, […] of streptomycin, 200 U/mL of penicillin G and 4 mM glutamine in a humidified atmosphere containing 5% CO2 at 37° C. Sensitivity of these cell lines to the synthesized compounds was assessed with the use of XTT cell proliferation kit II (Roche Diagnostics GmbH, Mannheim, Germany) according to the manufacturer's instructions. Briefly, cells were seeded in a 96-well plate at a density of 10,000 cells per well (90 μL). After 24 h, 10 μL of the tested compounds were added to the culture media at desired concentration range and incubated for 72 h. After that 50 μL of the XTT solution was added (1 mg/mL XTT+0.383 mg/mL N-methyl dibenzopyrazine methyl sulfate). The absorbance was recorded at 495 nm following a 2 h-incubation with the dye. IC50 values were determined by non-linear regression method using GraphPad Prism version 5.00 for Windows (GraphPad Software, La Jolla, Calif., USA).

Data set [4] concerns CCRF-CEM cells. Nature of the data set: Mitotic cells, pH3Ser10 antibody labeling (flow cytometry). Format: cell-based, human. Conditions: CCRF-CEM cells treated at IC50 for 24 hrs. The method, then:
as §3, §2

The test system of data set [5] is CCRF-CEM cells. Nature of the data set: BrdU incorporation analysis (DNA synthesis). Conditions: for BrdU+ (DNA synthesis), % of total cell populations: CCRF-CEM cells treated at IC50 for 24 hrs; for DNA synthesis inhibition in words: CCRF-CEM, IC50, 24 hours. Type of data set: cell-based, human. The procedure:
Cells were cultured as for cell cycle analysis. Before harvesting, they were pulse-labelled with 10 M 5-bromo-2′-deoxyuridine (BrdU) for 30 min. The cells were trypsinized, fixed with ice-cold 70% ethanol, incubated on ice for 30 min, washed with PBS, and resuspended in 2 M HCl for 30 min at room temperature to denature their DNA. Following neutralization with 0.1 M Na2B4O7, the cells were washed with PBS containing 0.5% Tween-20 and 1% BSA. They were then stained with primary anti-BrdU antibody (Exbio) for 30 min at room temperature in the dark. Cells were than washed with PBS and stained with secondary anti-mouse-FITC antibody (Sigma). The cells were then washed with PBS, incubated with propidium iodide (0.1 mg/mL) and RNAse A (0.5 mg/mL) for 1 h at room temperature in the dark, and finally analyzed by flow cytometry using a 488 nm single-beam laser (FACSCalibur, Becton Dickinson).
as §2

In data set [6] the test system is HCV subtype 2A replicon in Huh-7 cells. Nature of the data set: HCV sub-genomic reporter replicon assay, subtype 2A. Format: cell-based. To be noted: Hepatitis C virus; Huh-7 cells, HCV subtype 2A replicon; read-out: Replicon 2A EC50. The procedure: as §1

Consider `COc1ncnc2c1c(-c1ccco1)cn2[C@@H]1O[C@H](CO)[C@@H](O)[C@H]1O` [Compound 1a, 5-(Furan-2-yl)-4-methoxy-7-(β-D-ribofuranosyl)-7H-pyrrolo[2,3-d]pyrimidine], for which the EC50 in data set [1] was 0.02 µM. The “BrU+ (RNA synthesis), % of total cell populations” value (from here on “BrU+ (RNA synthesis), %”) in the data set with CCRF-CEM cells [2] is recorded as 13.8%. For the same compound, in the data set with CCRF-CEM cells [3], the “G1, % of total cell populations” value is 42.8%; the “G2/M, % of total cell populations” value was found to be 12.9%; the “S, % of total cell populations” value is 44.3%; the “sub-G1 (apoptosis), % of total cell populations” value (“sub-G1 (apoptosis), %” below) turned out to be 6.8%. In the data set with HepG2, the IC50 came out at 0.3 µM. In addition, the “pH3Ser10+ (mitosis), % of total cell populations” value (“pH3Ser10+ (mitosis), %” for short) in the data set with CCRF-CEM cells [4] is 1.4%. For the same compound, the “BrdU+ (DNA synthesis), % of total cell populations” value (shortened to “BrdU+ (DNA synthesis), %”) with CCRF-CEM cells [5] is given as 45.3%. The concentration for a half-maximal effect (EC50) in data set [6] came out at 0.03 µM.
For the compound `COc1ncnc2c1c(I)cn2[C@@H]1O[C@H](CO)[C@@H](O)[C@H]1O` [Compound 1h, 5-iodo-4-methoxy-7-(β-D-ribofuranosyl)-7H-pyrrolo[2,3-d]pyrimidine, reference compound], the EC50 in data set [1] is > 44 µM. Moreover, in the data set on CCRF-CEM cells [2], the “BrU+ (RNA synthesis), %” value stood at 0.2%. Further, in the data set on CCRF-CEM cells [3], the “G1, % of total cell populations” value was determined as 37.9%; the “G2/M, % of total cell populations” value came out at 12.9%; the “S, % of total cell populations” value worked out at 49.2%; the “sub-G1 (apoptosis), %” value was determined as 6%. In the data set with HepG2, the IC50 was > 20 µM. In addition, the “pH3Ser10+ (mitosis), %” value in the data set with CCRF-CEM cells [4] is 0.9%. In the data set on CCRF-CEM cells [5], the “BrdU+ (DNA synthesis), %” value is 38.9% and the “DNA synthesis inhibition in words” value was “barely inhibited”. In addition, the EC50 in data set [6] is > 44 µM.
On to `CSc1ncnc2c1c(-c1ccco1)cn2[C@@H]1O[C@H](CO)[C@@H](O)[C@H]1O` [Compound 2a, 5-(Furan-2-yl)-4-methylsulfanyl-7-(β-D-ribofuranosyl)-7H-pyrrolo[2,3-d]pyrimidine], for which the 50% effective concentration (EC50) in data set [1] is 0.07 µM. In addition, in the data set on CCRF-CEM cells [2], the “BrU+ (RNA synthesis), %” value is recorded as 5%. In the data set on CCRF-CEM cells [3], the “G1, % of total cell populations” value is reported as 43.5%; the “G2/M, % of total cell populations” value is recorded as 11.3%; the “S, % of total cell populations” value was determined as 45.3%; the “sub-G1 (apoptosis), %” value came out at 7.9%. In addition, the half-maximal inhibitory concentration (IC50) in the data set with HepG2 came out at 0.22 µM. Also, the “pH3Ser10+ (mitosis), %” value in the data set with CCRF-CEM cells [4] came out at 0.7%. Besides, in the data set on CCRF-CEM cells [5], the “BrdU+ (DNA synthesis), %” value turned out to be 29.5% and the “DNA synthesis inhibition in words” value was “barely inhibited”. The concentration giving a half-maximal response (EC50) in data set [6] amounted to 0.05 µM.
Compound `CSc1ncnc2c1c(-c1ccsc1)cn2[C@@H]1O[C@H](CO)[C@@H](O)[C@H]1O` [Compound 2d, 4-Methylsulfanyl-7-(β-D-ribofuranosyl)-5-(thiophen-3-yl)-7H-pyrrolo[2,3-d]pyrimidine] showed a melting point of 192 to 193 °C. For the same compound, in data set [1], the EC50 turned out to be 10.9 µM. Also, in the data set with HepG2, the IC50 was > 15 µM. Further, in data set [6], the EC50 is > 44 µM.
Take `CSc1ncnc2c1c(-c1ccccc1)cn2[C@@H]1O[C@H](CO)[C@@H](O)[C@H]1O` [Compound 2e, 4-Methylsulfanyl-5-phenyl-7-(β-D-ribofuranosyl)-7H-pyrrolo[2,3-d]pyrimidine]: the melting point is 169 to 170 °C. The concentration giving a half-maximal response (EC50) in data set [1] came out at 23.3 µM. Besides, the IC50 in the data set on HepG2 was > 20 µM. The EC50 in data set [6] was > 44 µM.
On to `CSc1ncnc2c1c(I)cn2[C@@H]1O[C@H](CO)[C@@H](O)[C@H]1O` [Compound 2h, 5-Iodo-4-methylsulfanyl-7-(β-D-ribofuranosyl)-7H-pyrrolo[2,3-d]pyrimidine], for which the melting point fell in the range of 217 to 219 °C. The 50% effective concentration (EC50) in data set [1] turned out to be 19.2 µM. The 50% inhibitory concentration (IC50) with HepG2 is > 20 µM. Also, in data set [6], the EC50 was > 44 µM.
As to `CNc1ncnc2c1c(-c1ccoc1)cn2[C@@H]1O[C@H](CO)[C@@H](O)[C@H]1O` [Compound 3b, 5-(Furan-3-yl)-4-methylamino-7-(β-D-ribofuranosyl)-7H-pyrrolo[2,3-d]pyrimidine], the melting point fell in the range of 90 to 97 °C. The EC50 in data set [1] stood at 35.9 µM. Also, the IC50 in the data set with HepG2 was > 20 µM. Besides, the EC50 in data set [6] is > 44 µM.
Compound `CNc1ncnc2c1c(-c1cccs1)cn2[C@@H]1O[C@H](CO)[C@@H](O)[C@H]1O` [Compound 3c, 4-Methylamino-7-(β-D-ribofuranosyl)-5-(thiophen-2-yl)-7H-pyrrolo[2,3-d]pyrimidine] showed a melting point of 183 to 185 °C. Besides, the EC50 in data set [1] is > 44 µM. Moreover, in the data set on HepG2, the IC50 was > 20 µM. For the same compound, the EC50 in data set [6] is > 44 µM.
`CNc1ncnc2c1c(-c1ccsc1)cn2[C@@H]1O[C@H](CO)[C@@H](O)[C@H]1O` [Compound 3d, 4-Methylamino-7-(β-D-ribofuranosyl)-5-(thiophen-3-yl)-7H-pyrrolo[2,3-d]pyrimidine] gave a melting point of 135 to 138 °C. Besides, the EC50 in data set [1] is > 44 µM. Moreover, in the data set on HepG2, the IC50 was > 20 µM. Moreover, the half-maximal effective concentration (EC50) in data set [6] is > 44 µM.
With `CNc1ncnc2c1c(-c1ccccc1)cn2[C@@H]1O[C@H](CO)[C@@H](O)[C@H]1O` [Compound 3e, 4-Methylamino-5-phenyl-7-(β-D-ribofuranosyl)-7H-pyrrolo[2,3-d]pyrimidine], the melting point lay within 149 to 153 °C. The EC50 in data set [1] is > 44 µM. In addition, the IC50 in the data set on HepG2 was > 20 µM. In addition, the EC50 in data set [6] was > 44 µM.
`CNc1ncnc2c1c(-c1cc3ccccc3o1)cn2[C@@H]1O[C@H](CO)[C@@H](O)[C@H]1O` [Compound 3f, 5-(Benzofuran-2-yl)-4-methylamino-7-(β-D-ribofuranosyl)-7H-pyrrolo[2,3-d]pyrimidine] came in with a melting point of 203 to 206 °C. In addition, the EC50 in data set [1] was found to be 2.05 µM. In addition, the half-inhibitory concentration (IC50) in the data set on HepG2 was > 20 µM. The EC50 in data set [6] came out at 13.6 µM.
The like results for `CN(C)c1ncnc2c1c(-c1ccoc1)cn2[C@@H]1O[C@H](CO)[C@@H](O)[C@H]1O` [Compound 4b, 4-Dimethylamino-5-(furan-3-yl)-7-(β-D-ribofuranosyl)-7H-pyrrolo[2,3-d]pyrimidine] were, in that order, 94 to 97 °C, 7.88 µM, 12.5 µM and > 44 µM.
For `Cc1ncnc2c1c(-c1cccs1)cn2[C@@H]1O[C@H](CO)[C@@H](O)[C@H]1O` [Compound 5c, 4-Methyl-7-(β-D-ribofuranosyl)-5-(thiophen-2-yl)-7H-pyrrolo[2,3-d]pyrimidine] the same measures were 110 to 111 °C, 6.67 µM, > 15 µM and > 44 µM.
